In patent US10618918B2, “Substituted boronic acids as antimicrobials” (priority 2015, dated 2020):
Read-outs that look alike come from different tables or passages of the source.

Assays:
[1] = tested on: EC1010 CMY-6; assay: Aztreonam potentiation (MPC@4), strain EC1010 CMY-6; conditions: minimum BLI concentration inhibiting growth with aztreonam 4 μg/mL; tested up to 40 μg/mL
[2] = tested on: KP1009 CTX-M-15; assay: Aztreonam potentiation (MPC@4), strain KP1009 CTX-M-15; conditions: minimum BLI concentration inhibiting growth with aztreonam 4 μg/mL; tested up to 40 μg/mL
[3] = tested on: KP1004 KPC-2; assay: Aztreonam potentiation (MPC@4), strain KP1004 KPC-2; conditions: minimum BLI concentration inhibiting growth with aztreonam 4 μg/mL; tested up to 40 μg/mL
[4] = tested on: AB1053 OXA-72; assay: Meropenem potentiation (MPC@8), strain AB1053 OXA-72; type: cell-based, Acinetobacter baumannii; conditions: minimum BLI concentration inhibiting growth with meropenem 8 μg/mL; tested up to 20 μg/mL
[5] = tested on: KP1005 CTX-M-14; assay: Tigemonam potentiation (MPC@4), strain KP1005 CTX-M-14; conditions: minimum BLI concentration inhibiting growth with tigemonam 4 μg/mL; tested up to 40 μg/mL
[6] = molecular target: purified class A, C and D enzymes (β-lactamases) (Klebsiella pneumoniae, UniProt Q9F663); assay: biochemical; type: biochemical; conditions: purified KPC-2; nitrocefin (NCF) as reporter substrate
[7] = molecular target: T1, purified class A, C and D enzymes (β-lactamases) (Acinetobacter baumannii, UniProt Q9L4P2); assay: biochemical; type: biochemical; conditions: purified OXA-23; nitrocefin (NCF) as reporter substrate
T1 construct: rows headed: Ki (OXA-23, NCF), uM; other: purified OXA-23; nitrocefin (NCF) as reporter substrate

[8] = molecular target: T2, purified class A, C and D enzymes (β-lactamases) (UniProt P0AD64, L31Q/G234S/E235K, species not given); assay: biochemical; type: biochemical
T2 construct: Ki (SHV-12, NCF), uM; other: purified SHV-12; nitrocefin (NCF) as reporter substrate
T2 sequence (P0AD64 1-286 L31Q/G234S/E235K): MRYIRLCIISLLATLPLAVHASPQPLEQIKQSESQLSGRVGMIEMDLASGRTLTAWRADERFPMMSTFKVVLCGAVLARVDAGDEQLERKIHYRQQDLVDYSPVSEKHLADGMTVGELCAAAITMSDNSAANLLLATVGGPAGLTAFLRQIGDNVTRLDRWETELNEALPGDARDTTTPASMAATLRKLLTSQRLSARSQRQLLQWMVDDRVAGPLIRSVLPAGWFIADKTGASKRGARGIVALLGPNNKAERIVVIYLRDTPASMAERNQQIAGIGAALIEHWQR

[9] = molecular target: purified class A, C and D enzymes (β-lactamases) (Enterobacter cloacae, UniProt P05364); assay: biochemical; type: biochemical
[10] = molecular target: purified class A, C and D enzymes (β-lactamases) (Escherichia coli, UniProt Q9L5C7); assay: biochemical; type: biochemical; conditions: purified CTX-M-14; nitrocefin (NCF) as reporter substrate
[11] = molecular target: T3, purified class A, C and D enzymes (β-lactamases) (Pseudomonas aeruginosa, UniProt P24735); assay: biochemical; type: biochemical
T3 construct: rows headed: Ki (Pa-AmpC, NCF), uM; other: purified Pa-AmpC; nitrocefin (NCF) as reporter substrate

[12] = molecular target: purified class A, C and D enzymes (β-lactamases) (Klebsiella pneumoniae, UniProt Q6XEC0); assay: biochemical; type: biochemical; conditions: purified OXA-48; nitrocefin (NCF) as reporter substrate
[13] = tested on: ECL1002; assay: Aztreonam potentiation (MPC@4), strain ECL1002; conditions: minimum BLI concentration inhibiting growth with aztreonam 4 μg/mL; tested up to 40 μg/mL
[14] = tested on: KP1004 KPC-2; assay: Biapenem potentiation (MPC@1), strain KP1004 KPC-2; type: cell-based; conditions: minimum BLI concentration inhibiting growth with biapenem 1 μg/mL; tested up to 40 μg/mL
Protocol: (§1) Biapenem was present in the test medium at 1 μg/mL. […] Table 3 summarizes the BLI potency of biapenem potentiation (MPC@1) for two strains overexpressing class A (KPC) and class D (OXA-48) carbapenemases. Biapenem MIC for each strain is also shown.

[15] = tested on: ec302 TEM-10; assay: Aztreonam potentiation (MPC@4), strain ec302 TEM-10; conditions: minimum BLI concentration inhibiting growth with aztreonam 4 μg/mL; tested up to 40 μg/mL
[16] = tested on: AB1054 OXA-23; assay: Meropenem potentiation (MPC@8), strain AB1054 OXA-23; type: cell-based, Acinetobacter baumannii; conditions: minimum BLI concentration inhibiting growth with meropenem 8 μg/mL; tested up to 20 μg/mL
[17] = tested on: ec308 SHV-5; assay: Aztreonam potentiation (MPC@4), strain ec308 SHV-5; conditions: minimum BLI concentration inhibiting growth with aztreonam 4 μg/mL; tested up to 40 μg/mL
[18] = tested on: KP1010 SHV-12; assay: Aztreonam potentiation (MPC@4), strain KP1010 SHV-12; conditions: minimum BLI concentration inhibiting growth with aztreonam 4 μg/mL; tested up to 40 μg/mL
[19] = tested on: KP1086 OXA-48; assay: Biapenem potentiation (MPC@1), strain KP1086 OXA-48; type: cell-based; conditions: minimum BLI concentration inhibiting growth with biapenem 1 μg/mL; tested up to 40 μg/mL
Protocol: as §1

[20] = purified P99, nitrocefin (NCF) as reporter substrate
[21] = purified Pa-AmpC, nitrocefin (NCF) as reporter substrate, read-out: Ki (Pa-AmpC, NCF)

Chain of purified class A, C and D enzymes (β-lactamases) (Enterobacter cloacae, UniProt P05364) (P05364 21-381): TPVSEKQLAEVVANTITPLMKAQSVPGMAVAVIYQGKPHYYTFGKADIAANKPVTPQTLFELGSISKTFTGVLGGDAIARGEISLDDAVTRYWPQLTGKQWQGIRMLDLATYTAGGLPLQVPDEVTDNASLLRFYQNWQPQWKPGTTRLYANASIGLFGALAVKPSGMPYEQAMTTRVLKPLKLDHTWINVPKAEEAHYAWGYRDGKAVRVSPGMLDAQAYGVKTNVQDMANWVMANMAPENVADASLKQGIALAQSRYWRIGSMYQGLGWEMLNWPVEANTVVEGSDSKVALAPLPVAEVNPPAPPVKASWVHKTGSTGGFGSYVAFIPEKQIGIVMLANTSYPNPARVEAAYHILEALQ
T1 sequence (Q9L4P2 whole entry): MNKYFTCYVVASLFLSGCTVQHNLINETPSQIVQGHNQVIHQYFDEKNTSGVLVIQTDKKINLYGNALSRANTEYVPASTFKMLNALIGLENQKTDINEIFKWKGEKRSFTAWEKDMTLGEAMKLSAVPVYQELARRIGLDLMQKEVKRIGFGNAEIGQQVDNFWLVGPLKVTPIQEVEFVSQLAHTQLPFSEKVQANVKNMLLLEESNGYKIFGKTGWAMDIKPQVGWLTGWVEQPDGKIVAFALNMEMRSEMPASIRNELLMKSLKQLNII
Chain of purified class A, C and D enzymes (β-lactamases) (Escherichia coli, UniProt Q9L5C7) (Q9L5C7 entry or part of it): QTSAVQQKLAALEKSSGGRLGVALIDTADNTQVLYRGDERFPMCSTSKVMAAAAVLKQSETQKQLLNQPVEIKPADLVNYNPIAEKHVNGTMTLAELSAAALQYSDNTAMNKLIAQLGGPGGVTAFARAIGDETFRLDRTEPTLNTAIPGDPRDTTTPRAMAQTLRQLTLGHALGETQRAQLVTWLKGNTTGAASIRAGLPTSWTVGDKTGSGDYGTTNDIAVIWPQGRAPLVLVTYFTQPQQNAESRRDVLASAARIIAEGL
T3 sequence (P24735 whole entry): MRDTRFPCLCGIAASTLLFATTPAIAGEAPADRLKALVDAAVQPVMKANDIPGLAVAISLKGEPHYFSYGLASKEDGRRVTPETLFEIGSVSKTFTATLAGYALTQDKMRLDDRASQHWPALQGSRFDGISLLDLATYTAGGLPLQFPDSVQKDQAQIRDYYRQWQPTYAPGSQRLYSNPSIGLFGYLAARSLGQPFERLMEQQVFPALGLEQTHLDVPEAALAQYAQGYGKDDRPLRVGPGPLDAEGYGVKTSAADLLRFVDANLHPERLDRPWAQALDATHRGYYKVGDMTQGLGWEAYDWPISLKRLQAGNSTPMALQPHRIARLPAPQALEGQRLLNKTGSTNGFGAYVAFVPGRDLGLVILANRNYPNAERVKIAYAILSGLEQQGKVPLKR

SMILES	AZT MPC4 CMY-6 EC1010 [1]	AZT MPC4 CTX-M-15 KP1009 [2]	AZT MPC4 KPC-2 KP1004 [3]	MPM MPC8 AB1053 OXA-72 [4]	TIG MPC4 CTX-M-14 KP1005 [5]	Ki (KPC-2, NCF), uM [6]	Ki [7] [nM]	Ki (P99, NCF), uM [9, 20]	Ki (CTX-M-14, NCF), uM [10]	Ki [11, 21] [nM]	Ki (OXA-48, NCF), uM [12]	AZT MPC4 ECL1002 [13]	BPM MPC1 KP1004 KPC-2 [14]	AZT MPC4 TEM-10 ec302 [15]	MPM MPC8 AB1054 OXA-23 [16]	AZT MPC4 SHV-5 ec308 [17]	AZT MPC4 SHV-12 KP1010 [18]	BPM MPC1 OXA-48 KP1086 [19]	Ki (P99, NCF), uM [9]	Ki [11] [nM]	further results
C[C@H]1Cc2cccc(C(=O)O)c2O[B-]1(O)O [Compound 9, Disodium; (3S)-4,4-dihydroxy-3-methy-5-oxa-4-boranuidabicyclo[4.4.0]deca-1(6),7,9-triene-7-carboxylate]	Y (Y = 5 μg/mL < MPC@4 ≤ 20 μg/mL)	Z (Z = MPC@4 > 20 μg/mL)	X (X = MPC@4 ≤ 5 μg/mL)	Z (Z = MPC@1 > 20 μg/mL)	Z (Z = MPC@4 > 20 μg/mL)	X (X = Ki ≤ 0.1 μM)	100 to 1000	X (X = Ki ≤ 0.1 μM)	X (X = Ki ≤ 0.1 μM)	< 100	X (X = Ki ≤ 0.1 μM)	Y (Y = 5 μg/mL < MPC@4 ≤ 20 μg/mL)	X (X = MPC@1 ≤ 5 μg/mL)	Z (Z = MPC@4 > 20 μg/mL)	Z (Z = MPC@1 > 20 μg/mL)	Y (Y = 5 μg/mL < MPC@4 ≤ 20 μg/mL)	Y (Y = 5 μg/mL < MPC@4 ≤ 20 μg/mL)	X (X = MPC@1 ≤ 5 μg/mL)			Ki ([8]; purified SHV-12; nitrocefin (NCF) as reporter substrate; read-out: Ki (SHV-12, NCF)): 100 to 1000 nM
C[C@@H]1Cc2cccc(C(=O)[O-])c2O[B-]1(O)O.[Na+].[Na+] [Compound 10, Disodium; (3R)-4,4-dihydroxy-3-methyl-5-oxa-4-boranuidabicyclo[4.4.0]deca-1(6),7,9-triene-7-carboxylate]	Z (Z = MPC@4 > 20 μg/mL)	Z (Z = MPC@4 > 20 μg/mL)	Y (Y = 5 μg/mL < MPC@4 ≤ 20 μg/mL)	Z (Z = MPC@1 > 20 μg/mL)	Z (Z = MPC@4 > 20 μg/mL)	X (X = Ki ≤ 0.1 μM)	> 1000		X (X = Ki ≤ 0.1 μM)		X (X = Ki ≤ 0.1 μM)	Z (Z = MPC@4 > 20 μg/mL)	X (X = MPC@1 ≤ 5 μg/mL)	Z (Z = MPC@4 > 20 μg/mL)	Z (Z = MPC@1 > 20 μg/mL)	Z (Z = MPC@4 > 20 μg/mL)	Y (Y = 5 μg/mL < MPC@4 ≤ 20 μg/mL)	Y (Y = 5 μg/mL < MPC@1 ≤ 20 μg/mL)	Y (key: X = Ki ≤ 0.1 μM; Y = 0.1 μM < Ki ≤ 1 μM; Z = Ki > 1 μM)	< 100	Ki ([8]; read-out: Ki (SHV-12, NCF); purified SHV-12; nitrocefin (NCF) as reporter substrate): 100 to 1000 nM
[2H]C1([2H])Cc2ccc(OC)c(C(=O)[O-])c2O[B-]1(O)O.[Na+].[Na+] [Compound 60, Disodium; 3,3-dideuterio-4,4-dihydroxy-8-methoxy-5-oxa-4-boranuidabicyclo[4.4.0]deca-1(10),6,8-triene-7-carboxylate]	X (X = MPC@4 ≤ 5 μg/mL)	X (X = MPC@4 ≤ 5 μg/mL)	X (X = MPC@4 ≤ 5 μg/mL)	X (X = MPC@1 ≤ 5 μg/mL)	X (X = MPC@4 ≤ 5 μg/mL)	X (X = Ki ≤ 0.1 μM)	< 100		X (X = Ki ≤ 0.1 μM)		X (X = Ki ≤ 0.1 μM)	X (X = MPC@4 ≤ 5 μg/mL)	X (X = MPC@1 ≤ 5 μg/mL)	X (X = MPC@4 ≤ 5 μg/mL)	X (X = MPC@1 ≤ 5 μg/mL)	X (X = MPC@4 ≤ 5 μg/mL)	X (X = MPC@4 ≤ 5 μg/mL)	X (X = MPC@1 ≤ 5 μg/mL)	X (key: X = Ki ≤ 0.1 μM; Y = 0.1 μM < Ki ≤ 1 μM; Z = Ki > 1 μM)	< 100	
O=C([O-])c1c(OCC#CCN2CCC2)ccc2c1O[B-](O)(O)CC2.[Na+].[Na+] [Compound 62, Disodium; 8-[4-(azetidin-1-yl)but-2-ynoxy]-4,4-dihydroxy-5-oxa-4-boranuidabicyclo[4.4.0]deca-1(6),7,9-triene-7-carboxylate]	X (X = MPC@4 ≤ 5 μg/mL)	X (X = MPC@4 ≤ 5 μg/mL)	X (X = MPC@4 ≤ 5 μg/mL)	X (X = MPC@1 ≤ 5 μg/mL)	Y (Y = 5 μg/mL < MPC@4 ≤ 20 μg/mL)	X (X = Ki ≤ 0.1 μM)	< 100		X (X = Ki ≤ 0.1 μM)		X (X = Ki ≤ 0.1 μM)	X (X = MPC@4 ≤ 5 μg/mL)	X (X = MPC@1 ≤ 5 μg/mL)	X (X = MPC@4 ≤ 5 μg/mL)	X (X = MPC@1 ≤ 5 μg/mL)	X (X = MPC@4 ≤ 5 μg/mL)	X (X = MPC@4 ≤ 5 μg/mL)	X (X = MPC@1 ≤ 5 μg/mL)	X (key: X = Ki ≤ 0.1 μM; Y = 0.1 μM < Ki ≤ 1 μM; Z = Ki > 1 μM)	< 100	
O=C(O)c1c(CNc2nncs2)ccc2c1OB(O)CC2 [Compound 64, 2-Hydroxy-7-[(1,3,4-thiadiazol-2-ylamino)methyl]-3,4-dihydro-1,2-benzoxaborinine-8-carboxylic acid]	X (X = MPC@4 ≤ 5 μg/mL)	X (X = MPC@4 ≤ 5 μg/mL)	X (X = MPC@4 ≤ 5 μg/mL)	Y (Y = 5 μg/mL < MPC@1 ≤ 20 μg/mL)	Y (Y = 5 μg/mL < MPC@4 ≤ 20 μg/mL)	X (X = Ki ≤ 0.1 μM)	< 100	X (X = Ki ≤ 0.1 μM)	X (X = Ki ≤ 0.1 μM)	< 100	X (X = Ki ≤ 0.1 μM)	X (X = MPC@4 ≤ 5 μg/mL)	X (X = MPC@1 ≤ 5 μg/mL)	X (X = MPC@4 ≤ 5 μg/mL)	Y (Y = 5 μg/mL < MPC@1 ≤ 20 μg/mL)	X (X = MPC@4 ≤ 5 μg/mL)	X (X = MPC@4 ≤ 5 μg/mL)	Y (Y = 5 μg/mL < MPC@1 ≤ 20 μg/mL)			
